Data taken from patent publication US20020002171A1, “Materials and methods for killing nematodes and nematode eggs” (priority 2000, published 2002).

Test system: Caenorhabditis elegans
Assay: C. elegans L1 nematicidal dose response in 96-well plates, 5 day visual score (Example 2; same procedure for Example 7, Table 3)
Type: in vivo
Parameters: key to 5 Day Visual Score V1 / 5 Day Visual Score V2 / 5 Day Visual Score V3 / 5 Day Visual Score V4 / 5 Day Visual Score V6 / 5 Day Visual Score V5 / Initial HTS Run Visual Score / Follow-up HTS Run Visual Score: Dead: only stiff L1s (no movement); Dead (L4): worms are dead, but at a later larval stage; majority of worms are L1 (based on size) worms move when plate is tapped; majority of worms are L2 (based on size); majority of worms are L3 (based on size); majority of worms are L4 (based on size); AD: majority of worms are adult; #AD: 5 adult worms or less; B!: sterile (0-25 progeny); B: low broodsize (25-100 progeny); ˜B: moderate broodsize (100-250 progeny); <: reduced broodsize (250-500 progeny); OK: no effect (˜1000+ progeny)
Settings: for 5 Day Visual Score V1 / 5 Day Visual Score V2 / 5 Day Visual Score V4 / 5 Day Visual Score V5 / 5 Day Visual Score V6 / 5 Day Visual Score V3: dose response; for 5 Day Visual Score V1: dilution V1, day 5; for 5 Day Visual Score V2: dilution V2, day 5; for 5 Day Visual Score V4: dilution V4, day 5; for 5 Day Visual Score V5: dilution V5, day 5; for 5 Day Visual Score V6: dilution V6, day 5; for 5 Day Visual Score V3: dilution V3, day 5
Summary of the method: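 L1 larvae, 20 per well in NGM with 1% E. coli HB101 and antibiotic/antimycotic, exposed to six 3-fold dilutions from 70 μM down to 0.3 μM (1.4% DMSO at top). Held at 20° C; viability scored visually under 100× dissecting microscope on day 5.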

SMILES	Follow-up HTS Run % Run [%]	Follow-up HTS Run Visual Score	Follow-up HTS Run mOD [mOD]	Initial HTS Run % Run [%]	Initial HTS Run Visual Score	Initial HTS Run mOD [mOD]	5 Day Visual Score V1	5 Day Visual Score V2	5 Day Visual Score V4	5 Day Visual Score V5	5 Day Visual Score V6	5 Day Visual Score V3
CCCCCCCCCCNc1nsc(N(C)CCc2ccccc2)n1 [compound 283]	120	Dead	193	131	Dead	144	Dead	Dead	OK (no effect (˜1000+ progeny))	OK (no effect (˜1000+ progeny))	OK (no effect (˜1000+ progeny))	–
CCCCCCCCCCNc1nsc(N(C)Cc2ccccc2)n1 [compound 284]	122	Dead	196	142	Dead	156	Dead	Dead	˜B (moderate broodsize (100-250 progeny))	OK (no effect (˜1000+ progeny))	OK (no effect (˜1000+ progeny))	Dead
CCCCCCCCCCNc1nsc(N(C)CCc2ccc(OC)c(OC)c2)n1 [compound 285]	131	Dead	211	149	Dead	164	Dead	Dead	˜B (moderate broodsize (100-250 progeny))	OK (no effect (˜1000+ progeny))	OK (no effect (˜1000+ progeny))	–
Cc1cccc(C)c1N1CCN(c2nc(NCCC(c3ccccc3)c3ccccc3)ns2)CC1 [compound 287]	88	–	142	128	–	141	Dead	B (low broodsize (25-100 progeny))	OK (no effect (˜1000+ progeny))	OK (no effect (˜1000+ progeny))	OK (no effect (˜1000+ progeny))	–
CCCCCCCCCCCCCCCCCCN(C)c1nc(NCCC(c2ccccc2)c2ccccc2)ns1 [compound 288]	82	L4/AD/B!	132	105	L3/L4/1AD/B	116	L1	B (low broodsize (25-100 progeny))	OK (no effect (˜1000+ progeny))	OK (no effect (˜1000+ progeny))	OK (no effect (˜1000+ progeny))	OK (no effect (˜1000+ progeny))
C=CCN(CC=C)c1nc(NCCC(c2ccccc2)c2ccccc2)ns1 [compound 289]	86	–	139	104	L4/AD/B	114	–	˜B (moderate broodsize (100-250 progeny))	OK (no effect (˜1000+ progeny))	OK (no effect (˜1000+ progeny))	OK (no effect (˜1000+ progeny))	OK (no effect (˜1000+ progeny))
CCOC(=O)CCN(Cc1ccccc1)c1nc(NCCC(c2ccccc2)c2ccccc2)ns1 [compound 290]	99	L4/AD/B	159	101	L4/AD/B	111	Dead	–	OK (no effect (˜1000+ progeny))	OK (no effect (˜1000+ progeny))	OK (no effect (˜1000+ progeny))	OK (no effect (˜1000+ progeny))
CCCCN(Cc1ccccc1)c1nc(NCc2ccc(F)cc2F)ns1 [compound 291]	137	B! (sterile (0-25 progeny))	220	136	–	150	L4#AD/B!	OK (no effect (˜1000+ progeny))	OK (no effect (˜1000+ progeny))	OK (no effect (˜1000+ progeny))	OK (no effect (˜1000+ progeny))	OK (no effect (˜1000+ progeny))
CCN(Cc1ccccc1)c1nc(NCc2ccc(F)cc2F)ns1 [compound 292]	116	L4/AD/B!	187	110	–	121	–	˜B (moderate broodsize (100-250 progeny))	OK (no effect (˜1000+ progeny))	OK (no effect (˜1000+ progeny))	OK (no effect (˜1000+ progeny))	OK (no effect (˜1000+ progeny))
C=CCN(CC=C)c1nc(NCc2ccc(F)cc2F)ns1 [compound 293]	125	L4/AD/B!	201	108	L4	119	–	< (reduced broodsize (250-500 progeny))	OK (no effect (˜1000+ progeny))	OK (no effect (˜1000+ progeny))	OK (no effect (˜1000+ progeny))	OK (no effect (˜1000+ progeny))
CN(CCc1ccccc1)c1nc(NCc2ccc(F)cc2F)ns1 [compound 294]	116	B! (sterile (0-25 progeny))	187	108	L4/AD/B!-Few Eggs	119	–	–	OK (no effect (˜1000+ progeny))	OK (no effect (˜1000+ progeny))	OK (no effect (˜1000+ progeny))	OK (no effect (˜1000+ progeny))
CN(Cc1ccccc1)c1nc(NCc2ccc(F)cc2F)ns1 [compound 295]	128	B! (sterile (0-25 progeny))	206	121	L4/AD/B!-Few Eggs	133	–	B (low broodsize (25-100 progeny))	OK (no effect (˜1000+ progeny))	OK (no effect (˜1000+ progeny))	OK (no effect (˜1000+ progeny))	B (low broodsize (25-100 progeny))
Fc1ccc(N2CCN(c3nc(NCc4c(F)cccc4F)ns3)CC2)cc1 [compound 296]	109	L4	175	96	L4/AD/B!-Few Eggs	106	Dead	–	OK (no effect (˜1000+ progeny))	OK (no effect (˜1000+ progeny))	< (reduced broodsize (250-500 progeny))	B (low broodsize (25-100 progeny))
CCN(c1nc(NCc2c(F)cccc2F)ns1)C1CCCCC1 [compound 297]	109	L4/AD/B	175	104	L4/AD/B!-Few Eggs	114	–	B (low broodsize (25-100 progeny))	OK (no effect (˜1000+ progeny))	OK (no effect (˜1000+ progeny))	OK (no effect (˜1000+ progeny))	OK (no effect (˜1000+ progeny))
CCCCN(Cc1ccccc1)c1nc(NCc2c(F)cccc2F)ns1 [compound 298]	143	–	231	125	L2	137	L4#AD/B	˜B (moderate broodsize (100-250 progeny))	OK (no effect (˜1000+ progeny))	OK (no effect (˜1000+ progeny))	OK (no effect (˜1000+ progeny))	OK (no effect (˜1000+ progeny))
CCN(Cc1ccccc1)c1nc(NCc2c(F)cccc2F)ns1 [compound 299]	115	L4	185	105	–	116	L4#AD/B	˜B (moderate broodsize (100-250 progeny))	OK (no effect (˜1000+ progeny))	OK (no effect (˜1000+ progeny))	OK (no effect (˜1000+ progeny))	˜B (moderate broodsize (100-250 progeny))
